Key:
HMG-CoA reductase = target: T1, HMG-CoA reductase (Rattus norvegicus, UniProt P51639); assay: Inhibition of HMG-CoA reductase activity in solubilized enzyme preparations from rat liver microsomes; format: biochemical; conditions: sodium salts of the dihydroxycarboxylic acids; mean of 3 parallel samples; read-out: IC50 (molar concentration necessary for a 50% inhibition)
T1 construct: solubilized enzyme preparations from liver microsomes of rats; from tissue; host or cells: rat liver microsomes (cholestyramine-induced rats), solubilized
T1 sequence (P51639 1-887): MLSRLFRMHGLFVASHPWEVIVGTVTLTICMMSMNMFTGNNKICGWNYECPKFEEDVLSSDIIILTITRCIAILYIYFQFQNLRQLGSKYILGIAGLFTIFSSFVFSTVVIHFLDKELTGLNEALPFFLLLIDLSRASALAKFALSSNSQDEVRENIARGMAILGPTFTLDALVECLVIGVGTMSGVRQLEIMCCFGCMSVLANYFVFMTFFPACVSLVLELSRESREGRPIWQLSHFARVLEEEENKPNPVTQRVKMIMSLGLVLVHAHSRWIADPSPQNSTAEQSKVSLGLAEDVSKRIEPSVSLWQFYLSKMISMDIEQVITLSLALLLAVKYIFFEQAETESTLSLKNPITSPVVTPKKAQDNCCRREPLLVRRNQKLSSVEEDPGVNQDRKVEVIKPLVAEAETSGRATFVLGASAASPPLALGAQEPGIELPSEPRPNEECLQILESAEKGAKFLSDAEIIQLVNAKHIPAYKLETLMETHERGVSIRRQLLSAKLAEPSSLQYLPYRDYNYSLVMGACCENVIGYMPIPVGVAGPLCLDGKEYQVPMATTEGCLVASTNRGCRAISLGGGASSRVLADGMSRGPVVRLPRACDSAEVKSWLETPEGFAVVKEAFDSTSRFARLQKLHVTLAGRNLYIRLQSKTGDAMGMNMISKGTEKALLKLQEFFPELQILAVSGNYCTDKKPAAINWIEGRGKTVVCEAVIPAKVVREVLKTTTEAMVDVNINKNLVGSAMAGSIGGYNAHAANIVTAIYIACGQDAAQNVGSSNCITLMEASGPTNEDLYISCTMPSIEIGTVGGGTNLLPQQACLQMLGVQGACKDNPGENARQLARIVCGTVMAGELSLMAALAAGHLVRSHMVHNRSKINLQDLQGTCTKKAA
Protocol: 1) Inhibition of HKG-CoA reductase activity in solubilized enzyme preparations from rat liver microsomes
HMG-CoA reductase activity was measured on solubilized enzyme preparations from liver microsomes of rats which had been induced by conversion into the day/night rhythm using cholestyramine (®Cuemid). (S,R)^14 C-HMG-CoA was used as a substrate, and the concentration of NADPH was maintained during the incubation by a regenerating system. The separation of ^14 C-mevalonate from substrate and other products (for example ^14 C-HMG) was carried out by column elution, the elution profile of each individual sample being determined. The regular addition of ^3 H-mevalonate was avoided as the determination gives the data relative to the inhibitory action. The enzyme-free control, the enzyme-containing normal mixture (=100%) and those containing preparation additives were in each case treated together in one series of experiments. The sodium salts of the dihydroxycarboxylic acids of the formula II were always employed as the preparation in this test. Each individual value was formed as the mean value of 3 parallel samples. The significance of the mean value differences between preparation-free and preparation-containing samples was evaluated by the t-test.

HEP G2 cells = assay: Inhibition of cholesterol biosynthesis in cell cultures (HEP G2 cells), incorporation of 14C-sodium acetate in cholesterol; format: cell-based; conditions: for IC50: Homo sapiens, HepG2, sodium salts, test compounds corrected by deviation of mevinolin sodium from its mean value, read-out: IC50 (concentration necessary for a 50% inhibition); for Relative potency in %: mevinolin sodium = 100, from IC50
Protocol: 2) Inhibition of cholesterol biosynthesis in cell cultures (EEP G2 cells)
Determination of the inhibition of the incorporation of ^14 C-sodium acetate in cholesterol
Monolayers of HEP G2 cells in lipoprotein-free medium were preincubated with various concentrations of the sodium salts of the dihydroxycarboxylic acids of the formula II for 1 hour. After adding ^14 C-labeled sodium acetate, the incubation was continued for 3 hours. Tritium-labeled cholesterol was added as an internal standard and an aliquot of the cells was subjected to alkaline hydrolysis. The lipids were extracted using chloroform/methanol 2: 1. After adding carrier cholesterol, the lipid mixture was preparatively separated on TLC plates using chloroform/acetone 9: 1. The cholesterol zone was made visible by staining with iodine vapor, additionally detected using a TLC radio scanner and then scraped off. The amount of ^14 C-cholesterol formed was determined scintigraphically and related to mg of cell protein. The same procedure was carried out with cells from the Bame culture without preincubation with a test compound (so-called "solvent control"). The potency of the test compounds was determined by comparison of the biosynthesized ^14 C-cholesterol in test runs and in "solvent control".

[1] = system: microsomal lipid peroxidation; assay: Inhibition of microsomal lipid peroxidation (in vitro); format: biochemical
Protocol: 5) Inhibition of microsomal lipid peroxidation (in vitro)
The inhibition of lipid peroxidation was measured under the experimental conditions described by H. Wafers and H. Sies, Eur. J. Biochem. 174, 353-357 (1988). The microsomes were obtained according to the literature cited therein. IC50 denotes the concentration of the test compound in moles per liter which causes a 50% inhibition of lipid peroxidation.

serum lipoproteins = assay: Action on serum lipoproteins and other metabolic parameters of male rats in the subchronic test; format: in vivo; conditions: rat; for Body weight, % changes in the mean value relative to starting / Food consumption, % changes in the mean value relative to control / Glycerol VLDL, % change compared to control / Liver weight, % changes in the mean value relative to control / Protein LDL, % change compared to control / Protein VLDL, % change compared to control / Total cholesterol HDL, % change compared to control / Total cholesterol LDL, % change compared to control / Total cholesterol VLDL, % change compared to control: 7 administrations; for Cholesterol HDL/LDL: control standardization to 1.00
Protocol: 3) Action on serum lipoproteins and other metabolic parameters of male rats in the subchronic test
Groups of male rats of the strain HOE: WISKf (SPF 71) having a starting weight of above 180 g received the test preparations daily in the morning (sodium salts of the dihydroxycarboxylic acids of the formula II) in polyethylene glycol 400 by stomach tube; the respective control group received only the vehicle. The last (7th) administration was carried out 24 hours before taking blood and sacrificing. There was free access to food and water during the experiment. 24 hours before taking blood, which wall carried out retroorbitally under slight ether anesthesia before and after the treatment period (i.e. on the 1st and 8th day), the food was withdrawn. Total cholesterol was determined in the serum of each individual animal [CHODPAP high performance method of Boehringer Mannheim], and, as a measure of the triglycerides, total glycerol was also determined analytically from the serum pool of all the animals of one group [GPO-PAP high performance method, Boehringer Mannheim].
Immediately after taking blood, the animals were sacrificed by dislocation of the spine, and the relative liver weight, the change in body weight and the food consumption were determined.
For the analysis of the serum lipoproteins, the serum of all the rats of one group was pooled. The serum lipoproteins were separated using the preparative ultracentrifuge.
The following conditions were used for the separation of the fractions VLDL, LDL and HDL:
The determination of the protein was carried out by the method of Lowry et al. [LOWRY O. H., ROSEBOROUGH, N.J., PARR, A. L. and RANDELL, R. J.: J. Biol. Chem. 193, 265 (1951)].

[2] = 100 mg/kg daily by stomach tube

| Structure (SMILES) | IC50 (HMG-CoA reductase) [nM] | IC50 (HEP G2 cells) [nM] | Relative potency in % (HEP G2 cells) [%] | Inhibition at 10^-5 mol/l [1] [%] | Body weight, % changes in the mean value relative to starting (serum lipoproteins; [2]) | Glycerol VLDL, % change compared to control (serum lipoproteins; [2]) [%] | Liver weight, % changes in the mean value relative to control (serum lipoproteins; [2]) | Protein LDL, % change compared to control (serum lipoproteins; [2]) | Protein VLDL, % change compared to control (serum lipoproteins; [2]) [%] | Total cholesterol HDL, % change compared to control (serum lipoproteins; [2]) | Total cholesterol LDL, % change compared to control (serum lipoproteins; [2]) [%] | Total cholesterol VLDL, % change compared to control (serum lipoproteins; [2]) | Cholesterol HDL/LDL (serum lipoproteins; 100 mg/kg daily) | also measured |
| --- | --- | --- | --- | --- | --- | --- | --- | --- | --- | --- | --- | --- | --- | --- |
| CC(C)c1cc(SC(C)(C)Sc2cc(-c3ccc(F)cc3)c(OC[C@@H](O)C[C@@H](O)CC(=O)O)c(C(C)C)c2)cc(-c2ccc(F)cc2)c1O [Example 6, Sodium 3(R),5(S)-dihydroxy-6-(2-isopropyl-4-[(3-isopropyl-4-sodio-oxy-5-p-fluorophenyl-l-phenylthio)-2-propyl-2-thio]-6-p-fluorophenylphenoxy)hexanoate] | 3 | 1700 | 3 | 98 | +5% | -8 | +1% | +3% | -2 | -3% | -16 | +13% | 1.15 | Body weight, % changes in the mean value relative to starting (serum lipoproteins; 30 mg/kg daily by stomach tube): +5%; Food consumption, % changes in the mean value relative to control (serum lipoproteins; 30 mg/kg daily by stomach tube): -1%; Glycerol VLDL, % change compared to control (serum lipoproteins; 30 mg/kg daily by stomach tube): +8%; Liver weight, % changes in the mean value relative to control (serum lipoproteins; 30 mg/kg daily by stomach tube): +3%; Protein LDL, % change compared to control (serum lipoproteins; 30 mg/kg daily by stomach tube): -24%; Protein VLDL, % change compared to control (serum lipoproteins; 30 mg/kg daily by stomach tube): -4%; Total cholesterol HDL, % change compared to control (serum lipoproteins; 30 mg/kg daily by stomach tube): +13%; Total cholesterol LDL, % change compared to control (serum lipoproteins; 30 mg/kg daily by stomach tube): -26%; Total cholesterol VLDL, % change compared to control (serum lipoproteins; 30 mg/kg daily by stomach tube): +12%; Cholesterol HDL/LDL (serum lipoproteins; 30 mg/kg daily): 1.27; Food consumption, % changes in the mean value relative to control (serum lipoproteins; [2]): -1%; IC50 ([1]; microsomes, read-out: IC50 (50% inhibition of lipid peroxidation)): 2700 nM |
| CC(C)c1cc(SC(C)(C)Sc2cc(-c3ccc(F)cc3)c(OC[C@@H](O)C[C@@H](O)CC(=O)O)c(C(C)C)c2)cc(-c2ccc(F)cc2)c1OC[C@@H](O)C[C@@H](O)CC(=O)O [Example 7, 4,4-(Isopropylidenedithio)-bis-<{1-[(2S,4R)-dihydroxy-5-sodiocarboxy]pentoxy-2-isopropyl-6-p-fluorophenyl}benzene>] | 1 | 920 | 5 | < 10 | +5% | -3 | -1% | -8% | -15 | +9% | -52 | -23% | 2.25 |  |

Second part, led by results:

| IC50 (HMG-CoA reductase) [nM] | IC50 (HEP G2 cells) [nM] | Structure (SMILES) | Relative potency in % (HEP G2 cells) [%] | Inhibition at 10^-5 mol/l [1] [%] | Body weight, % changes in the mean value relative to starting (serum lipoproteins; [2]) | Glycerol VLDL, % change compared to control (serum lipoproteins; [2]) [%] | Liver weight, % changes in the mean value relative to control (serum lipoproteins; [2]) | Protein LDL, % change compared to control (serum lipoproteins; [2]) | Protein VLDL, % change compared to control (serum lipoproteins; [2]) [%] | Total cholesterol HDL, % change compared to control (serum lipoproteins; [2]) | Total cholesterol LDL, % change compared to control (serum lipoproteins; [2]) [%] | Total cholesterol VLDL, % change compared to control (serum lipoproteins; [2]) | Cholesterol HDL/LDL (serum lipoproteins; 100 mg/kg daily) | also measured |
| --- | --- | --- | --- | --- | --- | --- | --- | --- | --- | --- | --- | --- | --- | --- |
| 2 | 2.2 | O=C(O)C[C@H](O)C[C@H](O)COc1c(-c2ccc(F)cc2)cc(Sc2ccc(F)cc2)cc1C1CC1 [Example 2] | 2273 | < 10 |  |  |  |  |  |  |  |  |  |  |
| 8 | 8 | CC(C)c1cc(Sc2ccccc2)cc(-c2ccc(F)cc2)c1OC[C@@H](O)C[C@@H](O)CC(=O)O [Example 4] | 625 |  |  |  |  |  |  |  |  |  |  |  |
| 8 | 9.2 | CC(C)Sc1cc(-c2ccc(F)cc2)c(OC[C@@H](O)C[C@@H](O)CC(=O)O)c(C(C)C)c1 [Example 5, Sodium 3(R),S(S)-dihydroxy-6-[(2-p-fluorophenyl-4-isopropylthio-6-isopropyl)phenoxy]hexanoate] | 543 | 0 |  |  |  |  |  |  |  |  |  |  |

Source: US5294724A, “4-hydroxytetrahydropyran-2-ones and the corresponding dihydroxycarboxylic acid derivatives, salts and esters and a process for their preparation” (priority 1989, dated 1994)
